Laboratory results reported in US20250361469A1, “Lymph Node on a Chip Device and Method” (New York University, priority 2024, published 2025).

Tests used:
[1] = test system: DCs and T cells in LN chip; assay: OVA I model antigen initiating adaptive immune process in the LN chip; format: cell-based, human
[2] = test system: DCs and FRCs; assay: CCL19 and CCL21 secretion by DCs and FRCs in paracortical area of LN chip under TNF-α (ELISA); format: cell-based, human; conditions: inflammatory conditions affected by TNF-α

Row | Substance | DC maturation (imDCs to mDCs) ([1]; OVA I as model antigen in LN chip) | T cell activation ([1]; OVA I-induced mDCs vs imDCs) | T cell migration ([1]; OVA I-induced mDCs vs imDCs) | T cell proliferation ([1]; OVA I-induced mDCs vs imDCs) | secretion of CCL19 by DCs and FRCs [2] | secretion of CCL21 by DCs and FRCs [2]
1 | Ovalbimin [OVA I, model antigen (Sigma Aldrich) to initiate the adaptive immune process in the LN chip] | transformed into mDCs | enhanced | enhanced | enhanced |  | 
2 | TNF-α |  |  |  |  | increases | increases
